Assay results reported in patent US4434151A, “Bifunctional chelating agents” (Medi-Physics, Inc., priority 1982, dated 1984).

Assays:
[1] = Organ uptake (biodistribution) of 99mTc activity in mice after intravenous administration; assay type: in vivo; conditions: i.v.; for Organ uptake of 99mTc, Carcass / Organ uptake of 99mTc, Intestines / Organ uptake of 99mTc, Kidney / Organ uptake of 99mTc, Liver / Organ uptake of 99mTc, Lung / Organ uptake of 99mTc, Stomach / Organ uptake of 99mTc, Tail: average of four animals ± SD
Experimental: (§1) The ^99m Tc complex used for the animal studies was prepared in Example 6 following both methods of reduction, stannous chloride or dithionite. The ^99m Tc-MGHA complexes labeled by either reduction method were tested in animals. The mass concentrations of the ^99m Tc complex administered to test animals were approximately 0.04 mg/kg body weight for rabbits and 13.0 mg/kg body weight for mice. The radioactivity administered to rabbits and mice were about 0.5 mCi and 1.5 mCi respectively. The pH of the injectant solution was approximately 5 to 6.
Nonfasted male mice (1CR strain) weighing 20-24 grams were administered in the tail vein with 0.2 mL of a ^99m Tc-complex solution. At 15, 30, 60 minutes post administration groups of four animals were sacrificed by cervical dislocation and selected organs removed for ^99m Tc assay in a gross ionization counting chamber. The percentage of the injected dose corrected for ^99m Tc decay was calculated for the various organs at each sacrifice time.
A ^99m Tc-MGHA complex prepared via a dithionite reduction of ^99m TcO4^- of Example 6 was administered to female albino mice weighing 20-24 gm. The test drug was administered through the lateral tail vein at a mass dose of approximately 13.0 mg/kg in a volume of 0.2 mL. The corresponding radioactive dose administered to each animal was 1.5 mCi. After injection, groups of four animals were sacrificed (cervical dislocation) at 15, 30 and 60 minutes. The liver, kidney, lung, heart, stomach and intestines (small and large) were removed and assayed for ^99m Tc activity in a gross ionization counting chamber. Also, the tails and remaining carcasses were individually assayed for ^99m Tc activity.
Knowing the amount of ^99m Tc activity administered (assaying for ^99m Tc in the syringe before and after injection) and the amount assayed in the various organs, the percentage of injected dose (% ID) was calculated as: [formula] All activities (Ci) were initially corrected for ^99m Tc decay back to a fixed starting time using the standard first order differential equation for decay correction (see below): […]
where N0 and N1 are initial and final activities (Ci) respectively. The half-life (T1/2) for ^99m Tc decay is 6.02 hr. The value of t is the elapsed time (hrs.) for the correction.
The results of ^99m Tc uptake in various organs and tissues in mice administered ^99m Tc-MGHA labeled via a dithionite reduction is given in Table 1.
A ^99m Tc-MGHA complex prepared via a stannous chloride reduction of 99mTcO.sbsb.4^- of Example 6 was administered to female albino mice weighing 20-24 gm. The same methods and procedures given in Example 19 were used to calculate the % ID for each organ.

[2] = Gamma camera imaging / regional areas of interest in rabbits after intravenous administration; assay type: in vivo, rabbits (New Zealand White); conditions: i.v.; for Gamma camera count densities (RAI): rabbits
Experimental: as §1
Nonanesthetized and nonfasted male rabbits (New Zealand White) weighing 3.0-3.5 kg were restrained in dorsal recumbancy approximately 2-3 cm from the face of the gamma camera. After intravenous administration of 0.1 mL of the ^99m Tc-labeled complex solution in the marginal ear vein, anterior images were stored by a dedicated computer during injection, and 5, 10, 15, 20 and 30 minutes following administration.
The ^99m Tc-complex prepared via a dithionate reduction of Example 6 was administered to male albino rabbits weighing 3.0-3.5 kg. The drug was injected into the marginal ear vein. The mass of drug administered was equivalent to ~0.04 mg/kg while the volume injected was 0.1 mL. The administered dose was ~0.5 mCi. Each test animal was restrained in dorsal recumbancy approximately 2-3 cm from the face of the gamma camera. Immediately after injection, 100-500 k counts were obtained from the gamma camera and stored on floppy disc. The computer controlled the maximum number of counts that could be stored per image. Sequential images were obtained and stored on disc at 5, 10, 15, 20 and 30 minutes following administration.
After all images were stored, quantitative image analysis was utilized to obtain count densities in regional areas of interest (RAI). The RAIs were delineated as distinct anatomical structures. Three distinct areas were observed.
A ^99m Tc-complex prepared via a stannous chloride reduction of Example 6 was administtered to male albino rabbits weighing 3.0-3.5 kg. […]

[3] = mice, dithionite reduction, 15 min.
[4] = mice, dithionite reduction, 30 min.
[5] = mice, dithionite reduction, 60 min.

CNC(=O)C1CC[S][99Tc-]23(=[O])[S]CC[N]2CC(=O)[N]13 [^99m Tc-MGHA, [2-[[1-(2mercaptoethyl)-2-(methylamino)-2-oxoethyl]-N-(2-mercaptoethyl)glycinato-N,N',S,S']oxotechnetate-99m]
Excretion of activity from the body ([1]; mice): rapid excretion of activity from the body | Total remaining activity (% injected dose) ([1]; mice, 30 minutes): approximately one-half of the injected dose | Organ uptake of 99mTc, Carcass ([1]; mice, SnCl2 reduction, 15 min.): 17.4 ± 2.8 % Injected Dose | Organ uptake of 99mTc, Intestines ([1]; mice, SnCl2 reduction, 15 min.): 28.7 ± 6.1 % Injected Dose | Organ uptake of 99mTc, Kidney ([1]; mice, SnCl2 reduction, 15 min.): 3.3 ± .9 % Injected Dose | Organ uptake of 99mTc, Liver ([1]; mice, SnCl2 reduction, 15 min.): 13.3 ± 5.4 % Injected Dose | Organ uptake of 99mTc, Lung ([1]; mice, SnCl2 reduction, 15 min.): .9 ± .4 % Injected Dose | Organ uptake of 99mTc, Stomach ([1]; mice, SnCl2 reduction, 15 min.): .3 ± .4 % Injected Dose | Organ uptake of 99mTc, Tail ([1]; mice, SnCl2 reduction, 15 min.): 1.4 ± .7 % Injected Dose | Organ uptake of 99mTc, Carcass ([1]; mice, SnCl2 reduction, 30 min.): 5.7 ± 2.9 % Injected Dose | Organ uptake of 99mTc, Intestines ([1]; mice, SnCl2 reduction, 30 min.): 27.3 ± 7.0 % Injected Dose | Organ uptake of 99mTc, Kidney ([1]; mice, SnCl2 reduction, 30 min.): 1.6 ± .4 % Injected Dose | Organ uptake of 99mTc, Liver ([1]; mice, SnCl2 reduction, 30 min.): 6.1 ± .9 % Injected Dose | Organ uptake of 99mTc, Lung ([1]; mice, SnCl2 reduction, 30 min.): .2 ± .2 % Injected Dose | Organ uptake of 99mTc, Stomach ([1]; mice, SnCl2 reduction, 30 min.): .6 ± .9 % Injected Dose | Organ uptake of 99mTc, Tail ([1]; mice, SnCl2 reduction, 30 min.): .14 ± .2 % Injected Dose | Organ uptake of 99mTc, Carcass ([1]; mice, SnCl2 reduction, 60 min.): 12.4 ± 5.1 % Injected Dose | Organ uptake of 99mTc, Intestines ([1]; mice, SnCl2 reduction, 60 min.): 29.3 ± 10.4 % Injected Dose | Organ uptake of 99mTc, Kidney ([1]; mice, SnCl2 reduction, 60 min.): 2.3 ± .8 % Injected Dose | Organ uptake of 99mTc, Liver ([1]; mice, SnCl2 reduction, 60 min.): 7.7 ± 2.0 % Injected Dose | Organ uptake of 99mTc, Lung ([1]; mice, SnCl2 reduction, 60 min.): .6 ± .3 % Injected Dose | Organ uptake of 99mTc, Stomach ([1]; mice, SnCl2 reduction, 60 min.): .1 ± .2 % Injected Dose | Organ uptake of 99mTc, Tail ([1]; mice, SnCl2 reduction, 60 min.): .7 ± .3 % Injected Dose | Kidney uptake of activity over time ([1]; mice, at the various time intervals examined): declining at the various time intervals examined | Organ uptake of 99mTc, Carcass [1, 3]: 21.9 ± 2.9 % Injected Dose | Organ uptake of 99mTc, Intestines [1, 3]: 16.8 ± 3.0 % Injected Dose | Organ uptake of 99mTc, Kidney [1, 3]: 3.1 ± .6 % Injected Dose | Organ uptake of 99mTc, Liver [1, 3]: 11.3 ± 1.0 % Injected Dose | Organ uptake of 99mTc, Lung [1, 3]: .9 ± .2 % Injected Dose | Organ uptake of 99mTc, Stomach [1, 3]: .3 ± .01 % Injected Dose | Organ uptake of 99mTc, Tail [1, 3]: 1.7 ± 1.0 % Injected Dose | Organ uptake of 99mTc, Carcass [1, 4]: 13.4 ± 5.3 % Injected Dose | Organ uptake of 99mTc, Intestines [1, 4]: 20.5 ± 2.0 % Injected Dose | Organ uptake of 99mTc, Kidney [1, 4]: 3.4 ± .5 % Injected Dose | Organ uptake of 99mTc, Liver [1, 4]: 7.6 ± .9 % Injected Dose | Organ uptake of 99mTc, Lung [1, 4]: .3 ± .1 % Injected Dose | Organ uptake of 99mTc, Stomach [1, 4]: .1 ± .1 % Injected Dose | Organ uptake of 99mTc, Tail [1, 4]: .3 ± .1 % Injected Dose | Organ uptake of 99mTc, Carcass [1, 5]: 18.3 ± 2.5 % Injected Dose | Organ uptake of 99mTc, Intestines [1, 5]: 16.9 ± 1.4 % Injected Dose | Organ uptake of 99mTc, Kidney [1, 5]: 3.9 ± .6 % Injected Dose | Organ uptake of 99mTc, Liver [1, 5]: 10.2 ± 1.6 % Injected Dose | Organ uptake of 99mTc, Lung [1, 5]: .5 ± .3 % Injected Dose | Organ uptake of 99mTc, Stomach [1, 5]: .8 ± .9 % Injected Dose | Organ uptake of 99mTc, Tail [1, 5]: 1.1 ± .4 % Injected Dose | Kidney uptake ([1]; mice, sacrifice times greater than 15 minutes post injection): little kidney uptake | Clearance of 99mTc activity out of the body ([1]; mice, within the first 15 minutes): fast clearance out of the body within the first 15 minutes | Suggested route of 99mTc clearance ([1]; test animals, indirect evidence): possible kidney clearance | Distinct areas observed in quantitative image analysis (RAI) ([2]; male albino rabbits, dithionite reduction, ~0.5 mCi, up to 30 minutes): The left and right kidneys and the bladder were clearly defined | Gamma camera count densities (RAI) ([2]; SnCl2 reduction method): significant count densities in regions where the right and left kidneys were visualized | Gamma camera count densities (RAI) ([2]; dithionite reduction method): significant count densities in regions where the right and left kidneys were visualized
